Test results from article PMC10436550, “Subacute toxicity evaluations of LPM3480392 in rats, a full µ-opioid receptor biased agonist” (Frontiers in Pharmacology, 2023).
Read-outs that look alike come from different tables or passages of the source.

Assays:
[1] = Toxicokinetics, plasma LPM3480392 after intravenous administration; type: in vivo, Sprague Dawley (SD) rats; conditions: Sprague-Dawley, rat, plasma; for concentration at 2 min: intravenous; for AUC(0-t): iv, read-out: AUC0–12h
Protocol: Blood samples from animals in LPM3480392 groups were collected at predose and 2 min, 30 min, 1 h and 4 h postdose of the 1st dosing on Days 1 and 28; at 2 min and 4 h postdose of the 2nd dosing on Days 1 and 28; at 2 min, 1 h and 4 h postdose the 3rd dosing on Days 1 and 28. Animals in control group were sampled at predose and 2 min postdose of the 1st dosing on Days 1 and 28. Approximately 0.36 mL of blood was collected from the jugular vein of surviving TK animals at each time point. Whole blood samples were anticoagulated with EDTA-K2 and centrifuged at 2°C–8°C and 1800 × g for 10 min. The harvested plasma was stored below −66°C before the analysis. LC-MS/MS methods (liquid chromatograph/mass spectrometer) were used to detect concentrations of LPM3480392 at each time point. TK parameters (AUC, Cmax, Tmax) were calculated by Phoenix WinNonlin (Pharsight) 8.2. The detection instruments include ultra-performance liquid chromatography (Waters, United States ACQUITY UPLC I -CLASS) and triple quadrupole tandem mass spectrometer (Waters, United States, Xevo TQ-S).

Sprague Dawley (SD) rats [2] = test: Ophthalmic examination; type: in vivo, rat; conditions: 2.4 mg/kg/day; both genders; end of dosing phase and recovery phase
Protocol: The examination was conducted on rats in control and 2.4 mg/kg/day groups at the end of dosing phase (Day 27) and at the end of recovery phase (Recovery day 27). The mydriasis (eye instillation, 1-2 drops/eye) was conducted using Mydrin-P (compound tropicamide eye drops) before examination. Binocular indirect ophthalmoscope was used to examine conjunctiva, cornea, iris, lens, anterior chamber, posterior chamber and fundus.

Sprague Dawley (SD) rats [3] = test: Mortality and clinical observation, 4-week subacute toxicity study; type: in vivo, rat; conditions: for Mild to severe increased activity, starting day: dosing phase
Protocol: For all surviving animals, a morning and an afternoon observation every day were conducted for the moribundity and death. Daily observation was carried out once within 1 h after each dosing in dosing phase, and at least once daily in recovery phase, including mental status, food and water consumption, hair, discharge, mortality and other toxic reactions. Detailed observation was performed once every week, including appearance, movement, mental status, gland secretions, skin and mucosa color, respiration, genitals, mortality and other toxic reactions.
The animals found dead were recorded for the observation or death time, and weighed followed by a complete postmortem examination to explore the cause of death. All required organs and tissue as listed in the Section 2.11 and other tissues with gross lesions were performed with histopathology examination. Animals found dead which could not be examined immediately were temporarily refrigerated.

Sprague Dawley (SD) rats [4] = test: Gross necropsy; type: in vivo, rat; conditions: end of dosing phase and recovery phase
Protocol: Complete gross necropsies were conducted on all surviving animals at the end of treatment (the day after the last dosing) and recovery periods. The following selected organs were weighed and evaluated in terms of organ/body or organ/brain weight ratios: brain, kidneys, adrenals, testes, ovaries, uterus, epididymides, thymus, spleen, heart and liver. Paired organs were weighed together. Organ-to-body weight ratio = Organ weight(g)/Body weight(g) × 100%, and Organ-to-brain weight ratio = Organ weight(g)/Brain weight(g) × 100%.

Compound: Fc1ccc([C@]2(CCNCc3cccc(Cl)c3)CCO[C@]3(CCOC3)C2)nc1 [LPM3480392]
- concentration at 2 min ([1]; female, 2.4 mg/kg/day, 2.4 mg/kg/day iv, 1st dosing day, F, read-out: C2min (The 2nd dosing)): 292 ± 33.6 ng/mL
- concentration at 2 min ([1]; female, 2.4 mg/kg/day, 2.4 mg/kg/day iv, 1st dosing day, F, read-out: C2min (The 3rd dosing)): 234 ± 52.1 ng/mL
- concentration at 2 min ([1]; female, 2.4 mg/kg/day, 2.4 mg/kg/day iv, 28th dosing day, F, read-out: C2min (The 1st dosing)): 356 ± 81.9 ng/mL
- concentration at 2 min ([1]; female, 2.4 mg/kg/day, 2.4 mg/kg/day iv, 28th dosing day, F, read-out: C2min (The 2nd dosing)): 387 ± 54.9 ng/mL
- concentration at 2 min ([1]; female, 2.4 mg/kg/day, 2.4 mg/kg/day iv, 28th dosing day, F, read-out: C2min (The 3rd dosing)): 323 ± 20.7 ng/mL
- AUC(0-t) ([1]; female, 0.6 mg/kg/day, 0.6 mg/kg/day iv, 1st dosing day, F): 319 ± 56 ng·h/mL
- AUC(0-t) ([1]; female, 0.6 mg/kg/day, 0.6 mg/kg/day iv, 28th dosing day, F): 331 ± 48.3 ng·h/mL
- AUC(0-t) ([1]; female, 1.2 mg/kg/day, 1.2 mg/kg/day iv, 1st dosing day, F): 719 ± 122 ng·h/mL
- AUC(0-t) ([1]; female, 1.2 mg/kg/day, 1.2 mg/kg/day iv, 28th dosing day, F): 735 ± 63.4 ng·h/mL
- AUC(0-t) ([1]; female, 2.4 mg/kg/day, 2.4 mg/kg/day iv, 1st dosing day, F): 1310 ± 57.9 ng·h/mL
- AUC(0-t) ([1]; female, 2.4 mg/kg/day, 2.4 mg/kg/day iv, 28th dosing day, F): 1580 ± 129 ng·h/mL
- concentration at 2 min ([1]; male, 0.6 mg/kg/day, 0.6 mg/kg/day iv, 1st dosing day, M, read-out: C2min (The 1st dosing)): 98.1 ± 21.3 ng/mL
- concentration at 2 min ([1]; male, 0.6 mg/kg/day, 0.6 mg/kg/day iv, 1st dosing day, M, read-out: C2min (The 2nd dosing)): 70.5 ± 14.7 ng/mL
- concentration at 2 min ([1]; male, 0.6 mg/kg/day, 0.6 mg/kg/day iv, 1st dosing day, M, read-out: C2min (The 3rd dosing)): 64.7 ± 10.8 ng/mL
- concentration at 2 min ([1]; male, 0.6 mg/kg/day, 0.6 mg/kg/day iv, 28th dosing day, M, read-out: C2min (The 1st dosing)): 84.3 ± 20.2 ng/mL
- concentration at 2 min ([1]; male, 0.6 mg/kg/day, 0.6 mg/kg/day iv, 28th dosing day, M, read-out: C2min (The 2nd dosing)): 77.9 ± 8.2 ng/mL
- concentration at 2 min ([1]; male, 0.6 mg/kg/day, 0.6 mg/kg/day iv, 28th dosing day, M, read-out: C2min (The 3rd dosing)): 79.4 ± 7.61 ng/mL
- concentration at 2 min ([1]; male, 1.2 mg/kg/day, 1.2 mg/kg/day iv, 1st dosing day, M, read-out: C2min (The 1st dosing)): 170 ± 10.7 ng/mL
- concentration at 2 min ([1]; male, 1.2 mg/kg/day, 1.2 mg/kg/day iv, 1st dosing day, M, read-out: C2min (The 2nd dosing)): 142 ± 28.9 ng/mL
- concentration at 2 min ([1]; male, 1.2 mg/kg/day, 1.2 mg/kg/day iv, 1st dosing day, M, read-out: C2min (The 3rd dosing)): 139 ± 29.2 ng/mL
- concentration at 2 min ([1]; male, 1.2 mg/kg/day, 1.2 mg/kg/day iv, 28th dosing day, M, read-out: C2min (The 1st dosing)): 171 ± 26.2 ng/mL
- concentration at 2 min ([1]; male, 1.2 mg/kg/day, 1.2 mg/kg/day iv, 28th dosing day, M, read-out: C2min (The 2nd dosing)): 113 ± 9.1 ng/mL
- concentration at 2 min ([1]; male, 1.2 mg/kg/day, 1.2 mg/kg/day iv, 28th dosing day, M, read-out: C2min (The 3rd dosing)): 131 ± 18.7 ng/mL
- concentration at 2 min ([1]; male, 2.4 mg/kg/day, 2.4 mg/kg/day iv, 1st dosing day, M, read-out: C2min (The 1st dosing)): 328 ± 33.8 ng/mL
- concentration at 2 min ([1]; male, 2.4 mg/kg/day, 2.4 mg/kg/day iv, 1st dosing day, M, read-out: C2min (The 2nd dosing)): 289 ± 10.5 ng/mL
- concentration at 2 min ([1]; male, 2.4 mg/kg/day, 2.4 mg/kg/day iv, 1st dosing day, M, read-out: C2min (The 3rd dosing)): 225 ± 40.9 ng/mL
- concentration at 2 min ([1]; male, 2.4 mg/kg/day, 2.4 mg/kg/day iv, 28th dosing day, M, read-out: C2min (The 1st dosing)): 346 ± 46 ng/mL
- concentration at 2 min ([1]; male, 2.4 mg/kg/day, 2.4 mg/kg/day iv, 28th dosing day, M, read-out: C2min (The 2nd dosing)): 259 ± 68.3 ng/mL
- concentration at 2 min ([1]; male, 2.4 mg/kg/day, 2.4 mg/kg/day iv, 28th dosing day, M, read-out: C2min (The 3rd dosing)): 317 ± 47.9 ng/mL
- AUC(0-t) ([1]; male, 0.6 mg/kg/day, 0.6 mg/kg/day iv, 1st dosing day, M): 310 ± 35.6 ng·h/mL
- AUC(0-t) ([1]; male, 0.6 mg/kg/day, 0.6 mg/kg/day iv, 28th dosing day, M): 366 ± 14.7 ng·h/mL
- AUC(0-t) ([1]; male, 1.2 mg/kg/day, 1.2 mg/kg/day iv, 1st dosing day, M): 607 ± 83.4 ng·h/mL
- AUC(0-t) ([1]; male, 1.2 mg/kg/day, 1.2 mg/kg/day iv, 28th dosing day, M): 625 ± 28.9 ng·h/mL
- AUC(0-t) ([1]; male, 2.4 mg/kg/day, 2.4 mg/kg/day iv, 1st dosing day, M): 1190 ± 87.1 ng·h/mL
- AUC(0-t) ([1]; male, 2.4 mg/kg/day, 2.4 mg/kg/day iv, 28th dosing day, M): 1400 ± 168 ng·h/mL
- Ophthalmic examination findings (Sprague Dawley (SD) rats [2]): No abnormalities
- Mild to severe increased activity, starting day (Sprague Dawley (SD) rats [3]; 0.6 mg/kg/day): 7
- Mild to severe increased activity, starting day (Sprague Dawley (SD) rats [3]; 1.2 mg/kg/day): 4
- Increased muscle tone, incidence (Sprague Dawley (SD) rats [3]; 1.2 mg/kg/day, first 5 days of dosing phase): 33/38
- Deep respiration or rale, incidence (Sprague Dawley (SD) rats [3]; 2.4 mg/kg/day): 4/36
- Hunchback, incidence (Sprague Dawley (SD) rats [3]; 2.4 mg/kg/day): 1/36
- Piloerection, incidence (Sprague Dawley (SD) rats [3]; 2.4 mg/kg/day): 1/36
- Found dead (1 male and 1 female) (Sprague Dawley (SD) rats [3]; 2.4 mg/kg/day, Days 3 and 15): 2/30
- Decreased activity, incidence (Sprague Dawley (SD) rats [3]; 2.4 mg/kg/day, a few time points during dosing phase): 26/36
- Mild to severe increased activity, starting day (Sprague Dawley (SD) rats [3]; 2.4 mg/kg/day): 1
- Increased muscle tone, incidence (Sprague Dawley (SD) rats [3]; 2.4 mg/kg/day, mostly complete dosing phase): 36/36
- Gross necropsy findings in main organs (Sprague Dawley (SD) rats [4]): no LPM3480392-related abnormalities
